The values below come from US20090018134A1, “Compounds - 945” (AstraZeneca AB, priority 2007, published 2009).

T1 sequence (P42345 1362-2549): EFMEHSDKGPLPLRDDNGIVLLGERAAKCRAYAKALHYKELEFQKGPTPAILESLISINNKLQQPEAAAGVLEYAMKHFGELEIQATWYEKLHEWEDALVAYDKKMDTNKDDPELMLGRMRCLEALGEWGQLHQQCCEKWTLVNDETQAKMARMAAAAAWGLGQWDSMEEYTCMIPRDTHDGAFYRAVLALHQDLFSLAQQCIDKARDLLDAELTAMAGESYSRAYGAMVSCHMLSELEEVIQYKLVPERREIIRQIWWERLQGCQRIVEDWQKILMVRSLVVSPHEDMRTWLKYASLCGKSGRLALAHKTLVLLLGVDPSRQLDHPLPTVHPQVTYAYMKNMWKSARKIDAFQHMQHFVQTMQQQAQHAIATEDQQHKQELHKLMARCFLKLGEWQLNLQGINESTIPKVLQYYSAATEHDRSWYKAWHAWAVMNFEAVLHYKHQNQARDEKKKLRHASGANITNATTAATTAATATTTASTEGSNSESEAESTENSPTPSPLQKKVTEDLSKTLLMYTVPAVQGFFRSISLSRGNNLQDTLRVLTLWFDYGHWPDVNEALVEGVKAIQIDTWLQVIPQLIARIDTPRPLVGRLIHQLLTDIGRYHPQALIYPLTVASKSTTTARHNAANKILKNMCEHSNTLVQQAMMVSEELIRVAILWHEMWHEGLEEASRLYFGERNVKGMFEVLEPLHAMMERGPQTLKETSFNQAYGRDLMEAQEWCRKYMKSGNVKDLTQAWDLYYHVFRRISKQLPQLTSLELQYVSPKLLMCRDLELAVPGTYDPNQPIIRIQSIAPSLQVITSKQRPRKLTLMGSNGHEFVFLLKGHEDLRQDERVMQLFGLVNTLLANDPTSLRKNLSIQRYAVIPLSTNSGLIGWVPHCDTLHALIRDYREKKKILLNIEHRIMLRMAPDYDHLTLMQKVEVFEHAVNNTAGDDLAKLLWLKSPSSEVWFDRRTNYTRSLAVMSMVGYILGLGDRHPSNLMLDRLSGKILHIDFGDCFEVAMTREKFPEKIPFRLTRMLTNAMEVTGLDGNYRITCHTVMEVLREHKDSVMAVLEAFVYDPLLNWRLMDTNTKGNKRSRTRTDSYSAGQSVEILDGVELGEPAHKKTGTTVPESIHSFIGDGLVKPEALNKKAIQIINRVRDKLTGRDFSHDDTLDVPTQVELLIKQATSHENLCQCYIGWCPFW

One assay concerns the target T1, mTOR (Homo sapiens, UniProt P42345).
T1 construct: FLAG; made in house
Description: In Vitro mTOR Kinase Assay (Echo), Test (a)(ii). The assay is classed as biochemical. Conditions: read-out: mTOR Kinase Assay (Echo). In short, it runs like this:
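Enzyme: HEK293-expressed, FLAG-purified mTOR C-terminal fragment (aa 1362-2549). Rxn 2 h RT with biotinylated peptide, stopped with EDTA 50 mM/BSA/Tris pH 7.4. Detection: T389 phospho-antibody AlphaScreen, 680 nm excitation. IC50.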
With `C[C@H]1COCCN1c1cc(C2(S(C)(=O)=O)CCC2)nc(-c2ccc(NC(=O)NCCCO)cc2)n1` [Example 5j, 3-(3-hydroxypropyl)-1-[4-[4-[(3S)-3-methylmorpholin-4-yl]-6-(1-methylsulfonylcyclobutyl)pyrimidin-2-yl]phenyl]urea], the IC50 stood at 0.239 nM.

As for `CNC(=O)Nc1ccc(-c2nc(N3CCOCC3)cc(C3(S(C)(=O)=O)CC3)n2)cc1` [Example 12a, 3-methyl-1-[4-[4-(1-methylsulfonylcyclopropyl)-6-morpholin-4-ylpyrimidin-2-yl]phenyl]urea], the IC50 was 1.67 nM.

On to `CC(C)NC(=O)Nc1ccc(-c2nc(N3CCOC[C@@H]3C)cc(C3(S(C)(=O)=O)CCC3)n2)cc1` [Example 5c, 1-[4-[4-[(3S)-3-methylmorpholin-4-yl]-6-(1-methylsulfonylcyclobutyl)pyrimidin-2-yl]phenyl]-3-propan-2-yl-urea], for which the IC50 is 6.81 nM.

For `C[C@H]1COCCN1c1cc(C2(S(C)(=O)=O)CCC2)nc(-c2ccc(NC(=O)Nc3cnn(C)c3)cc2)n1` [Example 5m, 1-[4-[4-[(3S)-3-methylmorpholin-4-yl]-6-(1-methylsulfonylcyclobutyl)pyrimidin-2-yl]phenyl]-3-(1-methylpyrazol-4-yl)urea], the IC50 stood at 0.69 nM.

Consider `C[C@H]1COCCN1c1cc(C2(S(C)(=O)=O)CCCC2)nc(-c2ccc(NC(=O)Nc3ccc(C(F)(F)F)cc3)cc2)n1` [Example 4k, 1-[4-[4-[(3S)-3-methylmorpholin-4-yl]-6-(1-methylsulfonylcyclopentyl)pyrimidin-2-yl]phenyl]-3-[4-(trifluoromethyl)phenyl]urea], for which the IC50 stood at 9.05 nM.

Staying with this assay, now noted: table of enzyme assay Test (a)(ii); read-out: Test (a)(ii) IC50.
As for `CNC(=O)Nc1ncc(-c2nc(N3CCOC[C@@H]3C)cc(C3(S(=O)(=O)C4CC4)CC3)n2)cn1` [Example 14x, 1-[5-[4-(1-cyclopropylsulfonylcyclopropyl)-6-[(3S)-3-methylmorpholin-4-yl]pyrimidin-2-yl]pyrimidin-2-yl]-3-methylurea], the IC50 was 630 nM.

As for `C[C@H]1COCCN1c1cc(C2(S(C)(=O)=O)CCC2)nc(-c2ccc(NC(=O)NCCCO)cc2)n1` [Example 5j, 3-(3-hydroxypropyl)-1-[4-[4-[(3S)-3-methylmorpholin-4-yl]-6-(1-methylsulfonylcyclobutyl)pyrimidin-2-yl]phenyl]urea], the IC50 turned out to be 0.173 nM.

For `CCCNC(=O)Nc1ccc(-c2nc(N3CCOCC3)cc(C3(S(=O)(=O)c4nc(C)cs4)CC3)n2)cc1` [Example 42g, 3-[4-[4-[1-[(4-methyl-1,3-thiazol-2-yl)sulfonyl]cyclopropyl]-6-morpholin-4-ylpyrimidin-2-yl]phenyl]-1-propylurea], the IC50 was 4.01 nM.

For `C[C@H]1COCCN1c1cc(C2(S(=O)(=O)c3ccccn3)CCCC2)nc(-c2ccc(NC(=O)NCCO)cc2)n1` [Example 36ac, 3-(2-hydroxyethyl)-1-[4-[4-[(3S)-3-methylmorpholin-4-yl]-6-(1-pyridin-2-ylsulfonylcyclopentyl)pyrimidin-2-yl]phenyl]urea], the IC50 was 4.41 nM.

`Cc1csc(S(=O)(=O)C2(c3cc(N4CCOC[C@@H]4C)nc(-c4ccc(NC(=O)NCCF)cc4)n3)CC2)n1` [Example 64ae, 3-(2-fluoroethyl)-1-[4-[4-[(3S)-3-methylmorpholin-4-yl]-6-[1-[(4-methyl-1,3-thiazol-2-yl)sulfonyl]cyclopropyl]pyrimidin-2-yl]phenyl]urea]: the IC50 stood at 2.13 nM.

Consider `C[C@H]1COCCN1c1cc(C2(S(C)(=O)=O)CCCC2)nc(-c2ccc(NC(=O)NCCO)nc2)n1` [Example 14q, 3-(2-hydroxyethyl)-1-[5-[4-[(3S)-3-methylmorpholin-4-yl]-6-(1-methylsulfonylcyclopentyl)pyri-midin-2-yl]pyridin-2-yl]urea], for which the IC50 was 26.5 nM.

With `Cc1csc(S(=O)(=O)C2(c3cc(N4CCOC[C@@H]4C)nc(-c4ccc(NC(=O)NCc5ncc[nH]5)cc4)n3)CC2)n1` [Example 36n, 3-(1H-imidazol-2-ylmethyl)-1-[4-[4-[(3S)-3-methylmorpholin-4-yl]-6-[1-[(4-methyl-1,3-thiazol-2-yl)sulfonyl]cyclopropyl]pyrimidin-2-yl]phenyl]urea], the IC50 stood at 24.8 nM.

Turning to `Cc1nnc(S(=O)(=O)C2(c3cc(N4CCOC[C@@H]4C)nc(-c4ccc(NC(=O)NC5CC5)cc4)n3)CC2)s1` [Example 38, 3-Cyclopropyl-1-[4-[4-[(3S)-3-methylmorpholin-4-yl]-6-[1-[(5-methyl-1,3,4-thiadiazol-2-yl)sulfonyl]cyclopropyl]pyrimidin-2-yl]phenyl]urea], the IC50 came to 1.31 nM.

With `CCS(=O)(=O)C1(c2cc(N3CCOC[C@@H]3C)nc(-c3ccc(NC(=S)NCCO)cc3)n2)CC1` [Example 88d, 1-[4-[4-(1-ethylsulfonylcyclopropyl)-6-[(3S)-3-methylmorpholin-4-yl]pyrimidin-2-yl]phenyl]-3-(2-hydroxyethyl)thiourea], the IC50 was determined as 4 nM.

On to `CNC(=S)Nc1ccc(-c2nc(N3CCOC[C@@H]3C)cc(C3(S(=O)(=O)c4ccncc4)CC3)n2)cc1` [Example 37af, 3-methyl-1-[4-[4-[(3S)-3-methylmorpholin-4-yl]-6-(1-pyridin-4-ylsulfonylcyclopropyl)pyrimidin-2-yl]phenyl]thiourea], for which the IC50 was found to be 23.3 nM.

As for `C[C@H]1COCCN1c1cc(C2(S(=O)(=O)c3ccccc3)CC2)nc(-c2ccc(NC(=O)Nc3cnn(C)c3)cc2)n1` [Example 36br, 1-[4-[4-[1-(benzenesulfonyl)cyclopropyl]-6-[(3S)-3-methylmorpholin-4-yl]pyrimidin-2-yl]phenyl]-3-(1-methylpyrazol-4-yl)urea], the IC50 was determined as 1.88 nM.

`C[C@H]1COCCN1c1cc(C2(S(=O)(=O)CCO)CC2)nc(-c2ccc(NC(=O)NCc3ncc[nH]3)cc2)n1` [Example 16h, 1-[4-[4-[1-(2-hydroxyethylsulfonyl)cyclopropyl]-6-[(3S)-3-methylmorpholin-4-yl]pyrimidin-2-yl]phenyl]-3-(1H-imidazol-2-ylmethyl)urea]: the IC50 came out at 186 nM.

Take `C[C@H]1COC[C@H](C)N1c1cc(C2(S(=O)(=O)c3ccccc3)CC2)nc(-c2ccc(NC(=O)NCC(F)F)cc2)n1` [Example 93d, 1-[4-[4-[1-(benzenesulfonyl)cyclopropyl]-6-[(3S,5S)-3,5-dimethylmorpholin-4-yl]pyrimidin-2-yl]phenyl]-3-(2,2-difluoroethyl)urea]: the IC50 amounted to 0.818 nM.

As for `O=C(NCCO)Nc1ccc(-c2nc(N3CCOCC3)cc(C3(S(=O)(=O)c4ccncc4)CC3)n2)cc1` [Example 36ar, 3-(2-hydroxyethyl)-1-[4-[4-morpholin-4-yl-6-(1-pyridin-4-ylsulfonylcyclopropyl)pyrimidin-2-yl]phenyl]urea], the IC50 came to 9.45 nM.

Consider `C[C@H]1COCCN1c1cc(C2(S(=O)(=O)c3ccc(Cl)cc3)CC2)nc(-c2ccc(NC(=O)Nc3cnn(C)c3)cc2)n1` [Example 27m, 1-[4-[4-[1-(4-chlorophenyl)sulfonylcyclopropyl]-6-[(3S)-3-methylmorpholin-4-yl]pyrimidin-2-yl]phenyl]-3-(1-methylpyrazol-4-yl)urea], for which the IC50 came to 1.44 nM.

Turning to `C[C@H]1COCCN1c1cc(C2(S(=O)(=O)C3CC3)CC2)nc(-c2cnc(NC(=O)Nc3cnn(C)c3)nc2)n1` [Example 14z, 1-[5-[4-(1-cyclopropylsulfonylcyclopropyl)-6-[(3S)-3-methylmorpholin-4-yl]pyrimidin-2-yl]pyrimidin-2-yl]-3-(1-methylpyrazol-4-yl)urea], the IC50 was 171 nM.

Turning to `C[C@H]1COCCN1c1cc(C2(S(C)(=O)=O)CCC2)nc(-c2ccc(NC(=O)Nc3cnn(C)c3)cc2)n1` [Example 5m, 1-[4-[4-[(3S)-3-methylmorpholin-4-yl]-6-(1-methylsulfonylcyclobutyl)pyrimidin-2-yl]phenyl]-3-(1-methylpyrazol-4-yl)urea], the IC50 turned out to be 0.604 nM.

For the compound `O=C(NCCCO)Nc1ccc(-c2nc(N3CCOCC3)cc(C3(S(=O)(=O)c4ccncc4)CC3)n2)cc1` [Example 36ax, 3-(3-hydroxypropyl)-1-[4-[4-morpholin-4-yl-6-(1-pyridin-4-ylsulfonylcyclopropyl)pyrimidin-2-yl]phenyl]urea], the IC50 amounted to 21.1 nM.

For the compound `C[C@H]1COCCN1c1cc(C2(S(=O)(=O)C(C)(C)C)CC2)nc(-c2ccc(NC(=O)NCCO)cc2)n1` [Example 18g, 1-[4-[4-(1-tert-butylsulfonylcyclopropyl)-6-[(3S)-3-methylmorpholin-4-yl]pyrimidin-2-yl]phenyl]-3-(2-hydroxyethyl)urea], the IC50 came to 1.23 nM.

In the case of `C[C@H]1COCCN1c1cc(C2(S(=O)(=O)C3CCOCC3)CC2)nc(-c2ccc(NC(=O)NCCO)cc2)n1` [Example 94d, 3-(2-hydroxyethyl)-1-[4-[4-[(3S)-3-methylmorpholin-4-yl]-6-[1-(oxan-4-ylsulfonyl)cyclopropyl]pyrimidin-2-yl]phenyl]urea], the IC50 came to 11 nM.

Regarding `CCNC(=O)Nc1ccc(-c2nc(N3CCOCC3)cc(C3(S(=O)(=O)c4ccccc4)CC3)n2)cc1` [Example 36dd, 3-[4-[4-[1-(benzenesulfonyl)cyclopropyl]-6-morpholin-4-ylpyrimidin-2-yl]phenyl]-1-ethylurea], the IC50 was determined as 2.91 nM.

For the compound `Cc1csc(S(=O)(=O)C2(c3cc(N4CCOC[C@@H]4C)nc(-c4ccc(NC(=O)NCCN(C)C)cc4)n3)CC2)n1` [Example 25f, 3-(2-dimethylaminoethyl)-1-[4-[4-[(3S)-3-methylmorpholin-4-yl]-6-[1-[(4-methyl-1,3-thiazol-2-yl)sulfonyl]cyclopropyl]pyrimidin-2-yl]phenyl]urea], the IC50 amounted to 54.7 nM.

Turning to `C[C@H]1COCCN1c1cc(C2(S(=O)(=O)c3ccc(F)cc3)CCC2)nc(-c2ccc(NC(=O)NC(C)(C)CO)cc2)n1` [Example 65c, 1-[4-[4-[1-(4-fluorophenyl)sulfonylcyclobutyl]-6-[(3S)-3-methylmorpholin-4-yl]pyrimidin-2-yl]phenyl]-3-(1-hydroxy-2-methylpropan-2-yl)urea], the IC50 came to 15.1 nM.

For `CC(C)(CO)NC(=O)Nc1ccc(-c2nc(N3CCOCC3)cc(C3(S(=O)(=O)C4CC4)CCC3)n2)cc1` [Example 13s, 1-[4-[4-(1-cyclopropylsulfonylcyclobutyl)-6-morpholin-4-ylpyrimidin-2-yl]phenyl]-3-(1-hydroxy-2-methylpropan-2-yl)urea], the IC50 worked out at 8.46 nM.

Take `C[C@H]1COCCN1c1cc(C2(S(=O)(=O)C3CCOC3)CC2)nc(-c2ccc(NC(=O)Nc3cnn(C)c3)cc2)n1` (stereo partly drawn) [Example 94k, 1-[4-[4-[(3S)-3-methylmorpholin-4-yl]-6-[1-(oxolan-3-ylsulfonyl)cyclopropyl]pyrimidin-2-yl]phenyl]-3-(1-methylpyrazol-4-yl)urea]: the IC50 is 10.6 nM.
